# Measurements as given in patent US20160331742A1, “TREATMENT OF CROHN'S DISEASE USING LOW DOSES OF LAQUINIMOD” (Teva Pharmaceutical Industries, Ltd., priority 2014, published 2016).
# Legend:
# [1] = test system: subjects suffering from active moderate to severe Crohn's disease; assay: Phase III randomized, double-blind, placebo-controlled 52-week maintenance of remission study of laquinimod in Crohn's disease patients; type: in vivo, human; details: 0.25 mg/day oral vs 0.5 mg/day, Example 2
# Protocol: A phase III, randomized, double-blind, placebo-controlled 52-week maintenance of remission study of laquinimod is conducted in Crohn's disease patients.
# One or more capsules containing laquinimod 0.25 mg, laquinimod 0.5 mg, or matching placebo are administered orally once daily (QD)
# Patients with a Response at Week 12 in any of the induction studies, TV5500-IMM-30009, TV5600-IMM-30012, or TV5500-IMM-10013, are re-randomized into this placebo-controlled maintenance study. Response at Week 12 in those induction studies is defined as a Crohn's Disease Activity Index (CDAI) reduction of at least 10 points from Baseline at Week 12. No new patients are included in this maintenance study. […]
# Ileonclonoscopy is performed at Baseline Week 12b Visit from the induction study) and Week 52 to directly assess endoscopic disease and mucosal healing. The timing of the ileocolonoscopy is arranged so that it takes place after the final day on which data is recorded for the Week 52 CDAI assessment, and allows time for adequate ileocolonoscopy preparation; consequently, the Week 52 ileocolcnoscopy is performed separately from but within 7 days of) the other Week 52 assessments each endosoopy is recorded, read, and scored by a central reader for an endoscopic score of cDEIS, and mucosal healing determination, […]
# [2] = test system: subjects suffering from active moderate to severe Crohn's disease; assay: Phase III randomized, double-blind, placebo-controlled study of oral laquinimod in active moderate to severe Crohn's disease (12 weeks); type: in vivo, human; details: 0.25 mg/day oral vs 0.5 mg/day, Example 1
# Protocol: A phase III, multicenter, randomized, double-blind, placebo-controlled study is conducted to evaluate Laquinimod in active moderate to severe Crohn's disease. There are ˜540 Crohn's disease patients enrolled, divided into 3 arms of ˜180 patients, randomized in a […] ratio (˜180 subjects on laquinimod 0.25 mg, ˜180 on laquinimod 0.5 mg, and ˜180 on placebo). One or more capsules containing laquinimod 0.25 mg, laquinimod 0.5 mg, or matching placebo are administered orally once daily; A loading dose regimen of double the maintenance/intended dose is given during the first two days of study drug treatment. Thereafter, starting on day 3, the daily maintenance/intended dose is administered. Patients with moderate to severe Crohn's disease (CD), as determined by a Crohn's Disease Activity Index (CDM) score of 220-450 (inclusive) and evidence of active endoscopic inflammatory disease, based on Crohn's Disease Endoscopic index of Severity (CDEIS) score >6 points. […] The timing of the ileocelonosoopy is arranged so that it takes place after the last day on which data are recorded for the CDAI assessment. […] Each endoscopy is recorded, and then read and scored by a central reader for endoscopic scores of CDEIS and SES-CD. […]
# [3] = test system: subjects suffering from active moderate to severe Crohn's disease; assay: Phase III open-label 64-week induction and maintenance study of laquinimod in Crohn's disease patients; type: in vivo, human; details: 0.25 mg/day oral vs 0.5 mg/day, Example 3
# Protocol: A phase III, randomized, open-label 64-week induction and maintenance study of laquinimod is conducted in Crohn's disease patients,
# One capsule containing laquinimod 0.25 mg or laquinimod 0.5 mg is administered orally once daily at the same hour:
# Response at Week 12 in those induction studies is defined as a Crohn's Disease Activity Index (COAT) reduction, of at least 70 points from Baseline. It is anticipated that many non-responders received placebo in the induction studies, so that TV5600-IMM-30011 is their first opportunity to be exposed to any dose of laquinimod. No new patients are included in this study.
# Treatment duration is up to 64 weeks. The initial phase of the treatment duration is 12 weeks. Scheduled in-clinic visits are conducted at Baseline (Week 0, Visit 1) and at Weeks 2, 4, 8, and 12. The Baseline visit (Week 0, Visit 1) for this study is the same as the Week 12 visit in the relevant induction study (i.e., not an additional visit). Some additional procedures may be performed on this day, as a part of the TV5600-114M-30011 protocol but not the induction study protocol. Unscheduled visits for safety or for any other reason are conducted at any time during the study. At Week 12 (and at subsequent visits), patients undergo a clinical assessment and are offered either release from the study or continuation of maintenance therapy at the existing dose. […]
# [4] = cited from earlier work
structure (smiles),measurement,setting,value
CCN(C(=O)c1c(O)c2c(Cl)cccc2n(C)c1=O)c1ccccc1 [laquinimod],adverse effects of 0.25 mg/day as compared to 0.5 mg/day,[1],maintaining or reducing adverse effects
same,"efficacy of 0.25 mg/day as compared to 0.5 mg/day (symptoms, clinical response, remission, CDAI, CDEIS, mucosal healing, CRP, fecal calprotectin, IBDQ, WPAI:CD, EQ-5D)",[1],"at least as effective, or more effective"
same,adverse effects of 0.25 mg/day as compared to 0.5 mg/day,[2],maintaining or reducing adverse effects
same,"efficacy of 0.25 mg/day as compared to 0.5 mg/day (symptoms, clinical response, remission, CDAI, CDEIS, mucosal healing, CRP, fecal calprotectin, IBDQ, WPAI:CD, EQ-5D)",[2],"at least as effective, or more effective"
same,adverse effects of 0.25 mg/day as compared to 0.5 mg/day,[3],maintaining or reducing adverse effects
same,"efficacy of 0.25 mg/day as compared to 0.5 mg/day (symptoms, clinical response, remission, CDAI, CRP, fecal calprotectin, IBDQ, WPAI:CD, EQ-5D)",[3],"at least as effective, or mare effective"
same,oral bioavailability,[4],high
